Results on 4 compounds are retold here after patent US9902986B2, “Enterobactin conjugates and uses thereof” (Massachusetts Institute of Technology, priority 2013, dated 2018).

One assay relates to E. coli K-12. The assay is described as follows: Antimicrobial activity assay, E. coli K-12. It counts as cell-based, Escherichia coli. Conditions: for concentrations at which E. coli K-12 was inhibited: inhibition attributed to iron deprivation. As for the experimental part: (§1) Overnight cultures of the bacterial strains were prepared by inoculating 5 mL of LB with the bacterial freezer stocks and the cultures were incubated at 37° C. in a tabletop incubator shaker set at 150 rpm. The overnight culture grew to saturation and was diluted 1:100 into 5 mL of fresh LB medium containing DP (200 μM) and incubated at 37° C. with shaking at 150 rpm until OD600 reached 0.6. The cultures were subsequently diluted to an OD600 value of 0.001 in 50% MHB medium (11.5 g/L) with or without DP (200 μM). No antibiotic marker was included in these cultures. A 90-μL aliquot of the diluted culture was combined with a 10-μL aliquot of a 10× solution of the tested compounds in a 96-well plate, which was wrapped in […] and incubated at 30° C. with shaking at 150 rpm for 19 h. Bacterial growth was determined by measuring OD600 using a BIOTEK SYNERGY HT plate reader. Each well condition was prepared in duplicate, and at least three independent replicates were conducted on different days. The resulting mean OD600 are reported and the error bars are the standard deviation.
In an exemplary experiment, antibacterial activities of the conjugates were tested against E. coli K-12 in 50% MHB at 30° C., t=19 h. 2,2′-dipyridyl (DP, 200 μM) was added to provide conditions of iron limitation.

For another assay, the system named is various E. coli strains. As to the kind of experiment: Antibacterial activity against a panel of E. coli strains. The class given is cell-based, Escherichia coli. Particulars: 6 strains of E. coli (K-12, B, H9049, 25922, UTI89, CFT073). As for the experimental part: as §1
Ampicillin and amoxicillin are β-lactam antibiotics that have periplasmic targets in Gram-negative bacteria and inhibit cell wall biosynthesis. The antibacterial activity of Ent-ampicillin and Ent-amoxicillin conjugates 44 and 45 was evaluated in vitro against a panel of Gram-negative and positive-bacteria.
Select Ent-β-lactam conjugates (Ent-Amp and Ent-Amx) and their glucosylated derivatives (MGE-Amp, MGE-Amx, DGE-Amp, and DGE-Amx) were tested against 6 strains of E. coli. Four of them are non-pathogenic strains, namely K-12, B, H9049, and 25922, and the other two are uropathogenic clinical isolates, namely UTI89 and CFT073.

Assay [1] concerns Salmonella enterica serovar Typhimurium (STM) IR715. The assay is described as follows: Antibacterial activity assay, Salmonella Typhimurium. It counts as cell-based. Conditions: 50% MHB, 100 μM 2,2′-dipyridyl, 30° C., t=19 h. As for the experimental part: FIGS. 12A and 12B show exemplary antibacterial activities of Ent-Amp, Ent-Amx, MGE-Amp, MGE-Amx, DGE-Amp, and DGE-Amx against Salmonella enterica serovar Typhimurium (STM) IR715 (50% MHB with 100 μM 2,2′-dipyridyl to provide conditions of iron limitation, 30° C., t=19 h). (FIG. 12A) Antibacterial activity of Amp and the Amp-containing conjugates (Ent-Amp, MGE-Amp, and DGE-Amp). […] (FIG. 12B) Antibacterial activity of Amx and the Amx-containing conjugates (Ent-Amx, MGE-Amx, and DGE-Amx).

In another assay the test system is E. coli H9049. The assay is described as follows: Antimicrobial activity assay, E. coli H9049. Particulars: 50% MHB, 30° C., t=19 h. It counts as cell-based, Escherichia coli. As for the experimental part: as §1
In another exemplary experiment, antibacterial activities of the conjugates were tested against E. coli H9049 in 50% MHB at 30° C., t=19 h. DP (200 μM) was added to provide conditions of iron limitation.

The subject of assay [2] is E. coli UTI89. The assay is described as follows: Antimicrobial activity assay, E. coli UTI89. The class given is cell-based, Escherichia coli. Particulars: 50% MHB, 200 μM DP (iron-deficient), 30° C., t=19 h. As for the experimental part: No antibiotic marker was included in these cultures. […] Bacterial growth was determined by measuring OD600 using a BIOTEK SYNERGY HT plate reader. Each well condition was prepared in duplicate, and at least three independent replicates were conducted on different days. The resulting mean OD600 are reported and the error bars are the standard deviation.
In another exemplary experiment, antibacterial activities of the conjugates were tested against E. coli UTI89 in 50% MHB at 30° C., t=19 h. […] Under iron-deficient conditions, Ent-Amp, MGE-Amp, and DGE-Amp provided a complete growth inhibition at 100 nM.

The next assay has as its system E. coli CFT073. As to the kind of experiment: Antimicrobial activity assay, E. coli CFT073. The class given is cell-based, Escherichia coli. Particulars: for concentration providing complete growth inhibition: 200 μM DP (iron-deficient); for effect of preloading Fe(III) on antibacterial activity: Fe(III)-loaded versus apo conjugates. As for the experimental part:
as §1
In another exemplary experiment, antibacterial activities of the conjugates were tested against E. coli CFT073 in 50% MHB at 30° C., t=19 h. DP (200 μM) was added to provide conditions of iron limitation.
In another exemplary experiment, antibacterial activities of Fe(III)-loaded or apo Ent-β-lactam conjugates (Ent-Amp and Ent-Amx) and their glucosylated derivatives (MGE-Amp, MGE-Amx, DGE-Amp, and DGE-Amx) against the uropathogenic strain E. coli CFT073 were tested in 50% MHB, 30° C., t=19 h. 2,2′-dipyridyl (DP, 200 μM) was added to provide conditions of iron limitation.

The test system of assay [3] is uropathogenic E. coli and non-pathogenic E. coli. The assay is described as follows: Mixed culture assays (summary), uropathogenic and non-pathogenic E. coli. It counts as cell-based, Escherichia coli. Particulars: uropathogenic with non-pathogenic E. coli. The text has this:
No antibiotic marker was included in these cultures.

In assay [4] the test system is E. coli UTI89. The assay is described as follows: Competition assay with native siderophores, E. coli UTI89. It counts as cell-based, Escherichia coli. Conditions: conjugate 100 nM, varied Ent, MGE or DGE, 50% MHB, 200 μM DP, 30° C., t=19 h. The protocol: Ent was synthesized following a literature procedure^55 and stored as DMSO stock solution at −20° C. MGE and DGE were prepared from Ent using MceC and IroB as described for MGE-PEG3-N3 and DGE-PEG3-N3.
In an exemplary experiment, select conjugates (Ent-Amp, MGE-Amp, and DGE-Amp) with select native siderophores (Ent, MGE, and DGE) were tested against the uropathogenic strain E. coli UTI89 in 50% MHB, t=19 h, 30° C. […] The concentration of the conjugates was fixed at 100 nM, and the concentration of the native siderophores was varied. […] These observations indicate that Ent, MGE, Ent-Amp, and MGE-Amp may enter via both FepA and IroN with different efficiency, but DGE and DGE-Amp may only enter via IroN.
In another exemplary experiment, select conjugates (Ent-Amp, MGE-Amp, and DGE-Amp) with select native siderophores (Ent, MGE, and DGE) were tested against the uropathogenic strain E. coli UTI89 in 50% MHB, t=19 h, 30° C. […] The concentration of the conjugates was fixed at 100 nM and the concentration of the native siderophores was varied. […] These observations indicate that Ent, MGE, Ent-Amp, and MGE-Amp may enter via both FepA and IroN with different efficiency, but DGE and DGE-Amp may only enter via IroN.

The mark [5] stands for this setting: 50% MHB, 200 μM DP, 30° C., t=19 h.

Turning to `CC1(C)SC2C(NC(=O)C(NC(=O)CCCc3cn(CCOCCOCCOCCNC(=O)c4cc(O)c(O)c(C(=O)NC5COC(=O)C(NC(=O)c6cc(C7OC(CO)C(O)C(O)C7O)cc(O)c6O)COC(=O)C(NC(=O)c6cc(C7OC(CO)C(O)C(O)C7O)cc(O)c6O)COC5=O)c4)nn3)c3ccccc3)C(=O)N2C1C(=O)O` (centres unmarked) [DGE-Amp], the “antibacterial activity at 100 nM” value with E. coli K-12 (setting [5]) and in the assay with E. coli H9049 (200 μM DP) was “inactive” in each case. Besides, the “concentration at which growth inhibition was observed (attributed to iron deprivation)” value in the assay on E. coli K-12 (setting [5]) and in the assay on E. coli H9049 (200 μM DP) was 10 µM each time. The “concentrations at which E. coli K-12 was inhibited” value in the assay with E. coli K-12 is recorded as “micromolar concentrations”. In the assay on various E. coli strains, the “antibacterial activity against uropathogenic compared to non-pathogenic E. coli” value was “greater antibacterial activity against the uropathogenic E. coli compared to non-pathogenic E. coli”. Moreover, the “antibacterial activity relative to the unmodified antibiotic” value in assay [1] is reported as “enhanced antibacterial activity relative to unmodified Amp”. Further, the “concentration providing complete growth inhibition” value in the assay on E. coli UTI89 [2] is recorded as 100 nM; in the assay with E. coli CFT073 (50% MHB, 30° C., t=19 h) it was 10 nM. Moreover, the “improved antibacterial activity against E. coli CFT073 over E. coli K-12” value in the assay with E. coli CFT073 (CFT073 (FepA and IroN) versus K-12 (FepA only)) stood at 100 fold. The “effect of preloading Fe(III) on antibacterial activity” value (shortened to “effect of preloading Fe(III)”) with E. coli CFT073 (setting [5]) is “no effect”. The “strain-specific growth inhibition in the mixed culture assays” value in assay [3] is “specifically inhibited the growth of the uropathogenic E. coli”. For the same compound, in the assay on E. coli UTI89 [4], the “attenuation of antibacterial activity by native siderophores” value (shortened to “attenuation of antibacterial activity”) is listed as “attenuated by Ent, MGE, or DGE”.
On to `CC1(C)SC2C(NC(=O)C(NC(=O)CCCc3cn(CCOCCOCCOCCNC(=O)c4cc(O)c(O)c(C(=O)NC5COC(=O)C(NC(=O)c6cccc(O)c6O)COC(=O)C(NC(=O)c6cccc(O)c6O)COC5=O)c4)nn3)c3ccccc3)C(=O)N2C1C(=O)O` (stereo not drawn) [Ent-Amp], for which the “concentration providing complete growth inhibition” value with E. coli K-12 (50% MHB, 200 μM DP (iron-deficient), 30° C., t=19 h) turned out to be 100 nM; in the assay with E. coli H9049 (200 μM DP (iron-deficient)), 100 nM; with E. coli UTI89 [2] it was 100 nM. In addition, the “antibacterial activity relative to the unmodified antibiotic” value in assay [1] was “enhanced antibacterial activity relative to unmodified Amp”. The “antibacterial activity at 10 nM” value with E. coli CFT073 (10 nM, 50% MHB, 200 μM DP, 30° C., t=19 h) was “slightly less active”. The “effect of preloading Fe(III)” value in the assay with E. coli CFT073 (setting [5]) is reported as “no effect”. Moreover, the “attenuation of antibacterial activity” value in the assay on E. coli UTI89 [4] was “only attenuated in the presence of Ent or MGE”.
Regarding `CC1(C)SC2C(NC(=O)C(NC(=O)CCCc3cn(CCOCCOCCOCCNC(=O)c4cc(O)c(O)c(C(=O)NC5COC(=O)C(NC(=O)c6cccc(O)c6O)COC(=O)C(NC(=O)c6cccc(O)c6O)COC5=O)c4)nn3)c3ccc(O)cc3)C(=O)N2C1C(=O)O` (stereo not drawn) [Ent-Amx], the “antibacterial activity relative to the unmodified antibiotic” value in assay [1] is “enhanced antibacterial activity relative to unmodified Amx”. Moreover, the “effect of preloading Fe(III)” value in the assay on E. coli CFT073 (setting [5]) is given as “no effect”. In addition, the “attenuation of antibacterial activity” value in the assay on E. coli UTI89 [4] was “only attenuated in the presence of Ent or MGE”.
Regarding `CC1(C)SC2C(NC(=O)C(NC(=O)CCCc3cn(CCOCCOCCOCCNC(=O)c4cc(O)c(O)c(C(=O)NC5COC(=O)C(NC(=O)c6cc(C7OC(CO)C(O)C(O)C7O)cc(O)c6O)COC(=O)C(NC(=O)c6cccc(O)c6O)COC5=O)c4)nn3)c3ccccc3)C(=O)N2C1C(=O)O` (centres unmarked) [MGE-Amp], the “antibacterial activity at 100 nM” value with E. coli K-12 (setting [5]) and with E. coli H9049 (200 μM DP) was “inactive” throughout. Also, the “antibacterial activity, comparison” value in the assay on E. coli K-12 (setting [5]) and with E. coli H9049 (200 μM DP) was “more active against the bacteria than DGE-Amp” in each case. In addition, the “concentrations at which E. coli K-12 was inhibited” value in the assay on E. coli K-12 was “micromolar concentrations”. In the assay with various E. coli strains, the “antibacterial activity against uropathogenic compared to non-pathogenic E. coli” value was “greater antibacterial activity against the uropathogenic E. coli compared to non-pathogenic E. coli”. Moreover, in assay [1], the “antibacterial activity relative to the unmodified antibiotic” value is “enhanced antibacterial activity relative to unmodified Amp”. Also, the “concentration providing complete growth inhibition” value in the assay with E. coli UTI89 [2] was determined as 100 nM; in the assay on E. coli CFT073 (50% MHB, 30° C., t=19 h), 10 nM. Moreover, the “effect of preloading Fe(III)” value with E. coli CFT073 (setting [5]) is “no effect”. The “strain-specific growth inhibition in the mixed culture assays” value in assay [3] is given as “specifically inhibited the growth of the uropathogenic E. coli”. For the same compound, in the assay on E. coli UTI89 [4], the “attenuation of antibacterial activity” value is reported as “attenuated by Ent, MGE, or DGE”.
